Data from patent US11753407B2, “Compounds for treating spinal muscular atrophy” (PTC Therapeutics, Inc., priority 2012, dated 2023).

Experiments:
[1] = system: Smn protein in SMA patient fibroblast cells (GM03813); assay: Smn protein assay in cultured cells (SMN HTRF); type: cell-based, human; settings: SMA patient fibroblast cells, 48 hours; for EC1.5x for Smn protein expression: 7-point concentration curve, SMN HTRF, concentration producing 1.5 times Smn protein vs DMSO vehicle control; for maximum fold (Fold) increase of Smn protein: 7-point concentration data, fold relative to vehicle control
Summary of the method: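 Fibroblasts, SMA patient; 5,000 cells/well; 7-pt curve, 3.16-fold serial dilution; 48 h, 37 °C, 5% CO2; RIPA lysis 1 h RT; anti-SMN d2 + kryptate overnight RT; HTRF 665/620 nm; fold vs DMSO; EC1.5×, max fold.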

[2] = system: SMN2 minigene mRNA (SMN2-A minigene) in HEK293H cells; assay: SMN2 minigene mRNA splicing RT-qPCR assay in cultured cells; type: cell-based, human; settings: Homo sapiens, HEK293-H; concentration increasing full length SMN2 mRNA 1.5-fold relative to vehicle-treated cells; HEK293H cells with SMN2-A minigene, 24 hours, 7-point concentration data; read-out: EC1.5x for production of full length SMN2 mRNA
Summary of the method: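 Stable SMN2-A minigene HEK293H; cpd 7-pt 3.16-fold series, 200× in DMSO, 24 h, 37 °C, n=2. Lysates → multiplex RT-qPCR (minigene FL + GAPDH), efficiency-corrected ΔΔCt vs vehicle. EC1.5× = 1.5-fold FL mRNA gain.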

SMILES | melting point [°C] | EC1.5x for Smn protein expression [1] | maximum fold (Fold) increase of Smn protein [1] | EC (1.5-fold increase) [2] [µM]
Cc1cc2cc(-c3cc(=O)n4cc(N5C[C@@H](C)N[C@@H](C)C5)ccc4n3)oc2c(C)n1 [Compound 527, 2-(5,7-dimethylfuro[2,3-c]pyridin-2-yl)-7-[(3R,5S)-3,5-dimethylpiperazin-1-yl]-4H-pyrido[1,2-a]pyrimidin-4-one] | 260 to 262 | **** (an EC1.5x≤0.3 μM is indicated by four stars (****)) | ***** (a fold increase >1.65 is indicated by five stars (*****)) | < 0.1
Cc1cc2cc(-c3cc(=O)n4cc(N5CCC(N(C)C)CC5)ccc4n3)oc2c(C)n1 [Compound 528, 7-[4-(dimethylamino)piperidin-1-yl]-2-(5,7-dimethylfuro[2,3-c]pyridin-2-yl)-4H-pyrido[1,2-a]pyrimidin-4-one] | 200 to 202 | **** (an EC1.5x≤0.3 μM is indicated by four stars (****)) | **** (a fold increase between >1.5 and ≤1.65 is indicated by four stars (****)) | < 0.1
Cc1cc2cc(-c3cc(=O)n4cc(N5CCN(CCO)CC5)ccc4n3)oc2c(C)n1 [Compound 529, 2-(5,7-dimethylfuro[2,3-c]pyridin-2-yl)-7-[4-(2-hydroxyethyl)piperazin-1-yl]-4H-pyrido[1,2-a]pyrimidin-4-one] | 256 to 258 | *** (an EC1.5× between >0.3 μM and ≤1 μM is indicated by three stars (***)) | ***** (a fold increase >1.65 is indicated by five stars (*****)) | < 0.1
Cc1cn2nc(-c3cc(=O)n4cc(C5CCN(CCO)CC5)ccc4n3)cc2c(C)n1 [Compound 530, 2-(4,6-dimethylpyrazolo[1,5-a]pyrazin-2-yl)-7-[1-(2-hydroxyethyl)piperidin-4-yl]-4H-pyrido[1,2-a]pyrimidin-4-one] | 228 to 230 | **** (an EC1.5x≤0.3 μM is indicated by four stars (****)) | ***** (a fold increase >1.65 is indicated by five stars (*****)) | < 0.1
Cc1cn2nc(-c3cc(=O)n4cc(N5CCN(CCO)CC5)ccc4n3)cc2c(C)n1 [Compound 531, 2-(4,6-dimethylpyrazolo[1,5-a]pyrazin-2-yl)-7-[4-(2-hydroxyethyl)piperazin-1-yl]-4H-pyrido[1,2-a]pyrimidin-4-one] | 246 to 248 | *** (an EC1.5× between >0.3 μM and ≤1 μM is indicated by three stars (***)) | ***** (a fold increase >1.65 is indicated by five stars (*****)) | 0.1 to 0.3
Cc1cn2nc(-c3cc(=O)n4cc(N5CCN(CCO)[C@H](C)C5)ccc4n3)cc2c(C)n1 [Compound 532, 2-(4,6-dimethylpyrazolo[1,5-a]pyrazin-2-yl)-7-[(3R)-4-(2-hydroxyethyl)-3-methylpiperazin-1-yl]-4H-pyrido[1,2-a]pyrimidin-4-one] | 238 to 240 | **** (an EC1.5x≤0.3 μM is indicated by four stars (****)) | ***** (a fold increase >1.65 is indicated by five stars (*****)) | < 0.1
Cc1cn2cc(-c3cc(=O)n4cc(N5CCN(CCOCCO)[C@@H](C)C5)ccc4n3)cc(Cl)c2n1 [Compound 534, 2-(8-chloro-2-methylimidazo[1,2-a]pyridin-6-yl)-7-{(3S)-4-[2-(2-hydroxyethoxy)ethyl]-3-methylpiperazin-1-yl}-4H-pyrido[1,2-a]pyrimidin-4-one] | 201 to 205 | **** (an EC1.5x≤0.3 μM is indicated by four stars (****)) | ***** (a fold increase >1.65 is indicated by five stars (*****)) | < 0.1
COCCN1CCN(c2ccc3nc(-c4cc(F)c5nc(C)cn5c4)cc(=O)n3c2)C[C@@H]1C [Compound 538, 2-(8-fluoro-2-methylimidazo[1,2-a]pyridin-6-yl)-7-[(3S)-4-(2-methoxyethyl)-3-methylpiperazin-1-yl]-4H-pyrido[1,2-a]pyrimidin-4-one] | 215 to 219 | *** (an EC1.5× between >0.3 μM and ≤1 μM is indicated by three stars (***)) | **** (a fold increase between >1.5 and ≤1.65 is indicated by four stars (****)) | < 0.1
Cc1cn2cc(-c3cc(=O)n4cc(N5CCN(CCO)[C@@H](C)C5)ccc4n3)cc(F)c2n1 [Compound 539, 2-(8-fluoro-2-methylimidazo[1,2-a]pyridin-6-yl)-7-[(3S)-4-(2-hydroxyethyl)-3-methylpiperazin-1-yl]-4H-pyrido[1,2-a]pyrimidin-4-one] | 270 to 274 | **** (an EC1.5x≤0.3 μM is indicated by four stars (****)) | **** (a fold increase between >1.5 and ≤1.65 is indicated by four stars (****)) | < 0.1
Cc1cn2cc(-c3cc(=O)n4cc(N5CCN(CCOCCO)[C@@H](C)C5)ccc4n3)cc(F)c2n1 [Compound 540, 2-(8-fluoro-2-methylimidazo[1,2-a]pyridin-6-yl)-7-{(3S)-4-[2-(2-hydroxyethoxy)ethyl]-3-methylpiperazin-1-yl}-4H-pyrido[1,2-a]pyrimidin-4-one] | 175 to 181 | – | *** (a fold increase between >1.35 and ≤1.5 is indicated by three stars (***)) | < 0.1

Continued, in another order:

melting point [°C] | SMILES | EC1.5x for Smn protein expression [1] | maximum fold (Fold) increase of Smn protein [1] | EC (1.5-fold increase) [2] [µM]
284 to 286 | CCN1CCC(c2ccc3nc(-c4cc(Cl)c5nc(C)cn5c4)cc(=O)n3n2)CC1 [Compound 525, 2-(8-chloro-2-methylimidazo[1,2-a]pyridin-6-yl)-7-(1-ethylpiperidin-4-yl)-4H-pyrimido[1,2-b]pyridazin-4-one] | *** (an EC1.5× between >0.3 μM and ≤1 μM is indicated by three stars (***)) | ***** (a fold increase >1.65 is indicated by five stars (*****)) | 0.1 to 0.3
255 to 257 | Cc1cn2cc(-c3cc(=O)n4nc(C5CCN(CCO)CC5)ccc4n3)cc(Cl)c2n1 [Compound 526, 2-(8-chloro-2-methylimidazo[1,2-a]pyridin-6-yl)-7-[1-(2-hydroxyethyl)piperidin-4-yl]-4H-pyrimido[1,2-b]pyridazin-4-one] | ** (an EC1.5× between >1 μM and ≤3 μM is indicated by two stars (**)) | ***** (a fold increase >1.65 is indicated by five stars (*****)) | 0.3 to 1
179 to 183 | COCCN1CCN(c2ccc3nc(-c4cc(Cl)c5nc(C)cn5c4)cc(=O)n3c2)C[C@@H]1C [Compound 533, 2-(8-chloro-2-methylimidazo[1,2-a]pyridin-6-yl)-7-[(3S)-4-(2-methoxyethyl)-3-methylpiperazin-1-yl]-4H-pyrido[1,2-a]pyrimidin-4-one] | *** (an EC1.5× between >0.3 μM and ≤1 μM is indicated by three stars (***)) | ***** (a fold increase >1.65 is indicated by five stars (*****)) | < 0.1
253 to 257 | Cc1cn2cc(-c3cc(=O)n4cc(N5CCN(C6CC6)[C@@H](C)C5)ccc4n3)cc(Cl)c2n1 [Compound 535, 2-(8-chloro-2-methylimidazo[1,2-a]pyridin-6-yl)-7-[(3S)-4-cyclopropyl-3-methylpiperazin-1-yl]-4H-pyrido[1,2-a]pyrimidin-4-one] | *** (an EC1.5× between >0.3 μM and ≤1 μM is indicated by three stars (***)) | ***** (a fold increase >1.65 is indicated by five stars (*****)) | < 0.1
228 to 232 | Cc1cn2cc(-c3cc(=O)n4cc(N5CCN(C6CCC6)[C@@H](C)C5)ccc4n3)cc(Cl)c2n1 [Compound 536, 2-(8-chloro-2-methylimidazo[1,2-a]pyridin-6-yl)-7-[(3S)-4-cyclobutyl-3-methylpiperazin-1-yl]-4H-pyrido[1,2-a]pyrimidin-4-one] | **** (an EC1.5x≤0.3 μM is indicated by four stars (****)) | **** (a fold increase between >1.5 and ≤1.65 is indicated by four stars (****)) | < 0.1
228 to 234 | Cc1cn2cc(-c3cc(=O)n4cc(N5CCN(CCO)[C@@H](C)C5)ccc4n3)cc(Cl)c2n1 [Compound 537, 2-(8-chloro-2-methylimidazo[1,2-a]pyridin-6-yl)-7-[(3S)-4-(2-hydroxyethyl)-3-methylpiperazin-1-yl]-4H-pyrido[1,2-a]pyrimidin-4-one] | **** (an EC1.5x≤0.3 μM is indicated by four stars (****)) | **** (a fold increase between >1.5 and ≤1.65 is indicated by four stars (****)) | < 0.1
